Data reported in patent US12144851B2, “Vaccinal strategy” (INSERM (INSTITUT NATIONAL DE LA SANTÉ ET DE LA RECHERCHE …, priority 2018, dated 2024).

What was measured:
[1] = tested on: CD8+ splenocytes restimulated with MELOE-136-44; assay: Immunization of transgenic mice with SLP, CD8 ELISpot-IFN-g; format: in vivo, HLA-DRB1*0101/HLA-A*0201 transgenic mice; settings: INFg-ELIspot; positive if spots more than twice background and above ten; s.c. 100 μg prime, 50 μg boosts, IFA + polyI:C; FIG. 7A/B
Description: CD8+ splenocytes from immunized mice were tested by INFg-ELIspot following restimulation with the short epitope MELOE-136-44. Mice were considered positive if the number of spots after restimulation were more than twice the background level and above ten spots.
(§1) HLA-DRB1*0101/HLA-A*0201 transgenic mice (A2/DR1 mice) were used to evaluate immunogenicity of peptides. Group of 5 female A2/DR1 mice (6 to 10 weeks) were immunized subcutaneously with 100 μg of each peptides emulsified in incomplete Freund adjuvant (v/v) plus 50 μg of polyI:C. At day 14 and day 28 boost vaccinations were performed with 50 μg of each peptide along with the same adjuvants. All experiments were carried out according to the good laboratory practices defined by the animal experimentation Rules in France.
Specific immune responses were evaluated 10 days after the last boost by ELISpot-IFN-g (Diaclone, France). Briefly, freshly isolated splenocytes or CD8 positive T cells from spleen (CD8+ T Cell Isolation Kit, Miltenyi Biotec) were incubated (2.105 cells per well) during 15-20 hours in ELISpot plate in the presence of the class I MELOE-1 epitope (5 μg/ml final) or medium (X-vivo, as negative control) or PMA-ionomycin (positive control). Ex vivo CD4 T cell responses were evaluated on the CD8 negative fraction as above with the HLA-DRB1*0101-restricted epitope MELOE-113-27. […] Spot-forming cells were counted using the «C.T.L. Immunospot» system (Cellular Technology Ltd). Results were considered positive when the ELISPOT counts were >10 spots and above 2× the background (medium). (Dosset et al Clin Cancer Res, 2012)
Finally, we explored the immunogenicity of our SLP in vivo in HLA-DRB1*0101/HLA-A*0201 transgenic mice. Mice were immunized subcutaneously with 100 μg of SLP in IFA and poly I:C and boosted at D14 and D28 with 50 μg of SLP with the same adjuvants (see M&M). We focused on cross-presentation and thus assessed CD8 T cell responses by ELISpot-IFN-g after re-stimulation with the short MELOE-1136-44 epitope (SEQ ID NO:31) or with medium alone. A mouse was considered responder when ELIspots were above 10 and at least twice about background. A typical experiment is presented in FIG. 7 comparing immunization with SLP containing MELOE-113-27 (SEQ ID NO:21) and MELOE-136-44 (SEQ ID NO:31) with linker GGGG (SEQ ID NO:160) or LLSVGG (SEQ ID NO:9). Immunization with SLP containing GGGG (SEQ ID NO:160) generated moderate CD8 responses in 3 out of five mice while immunization with SLP with LLSVGG (SEQ ID NO:9) was efficient in all 5 mice with two mice showing robust CD8 responses. Previous experiments performed with the shorter linkers LLSV (SEQ ID NO:4) or LLSVG (SEQ ID NO:8) also supported the hypothesis that our synthetic linkers favored cross-presentation when compared to either the linker GGGG or the native sequence (Table 4). In contrast, CD4 responses evaluated ex vivo towards the HLA-DRB1*0101 epitope were very low (FIG. 7C).

[2] = tested on: CD4+ T cells restimulated with MELOE-113-27; assay: Immunization of transgenic mice with SLP, ex vivo CD4 ELISpot-IFN-g; format: in vivo, HLA-DRB1*0101/HLA-A*0201 transgenic mice; settings: immunized mice, FIG. 7C
Description: as §1
Specific immune responses were evaluated 10 days after the last boost by ELISpot-IFN-g (Diaclone, France). […] Ex vivo CD4 T cell responses were evaluated on the CD8 negative fraction as above with the HLA-DRB1*0101-restricted epitope MELOE-113-27. […] Spot-forming cells were counted using the «C.T.L. Immunospot» system (Cellular Technology Ltd). […]
Finally, we explored the immunogenicity of our SLP in vivo in HLA-DRB1*0101/HLA-A*0201 transgenic mice. […] We focused on cross-presentation and thus assessed CD8 T cell responses by ELISpot-IFN-g after re-stimulation with the short MELOE-1136-44 epitope (SEQ ID NO:31) or with medium alone. […] In contrast, CD4 responses evaluated ex vivo towards the HLA-DRB1*0101 epitope were very low (FIG. 7C).

[3] = tested on: MELOE-1, HLA A*0201 restricted CD8 T cell clone

TSREQFLPSEGAACPPWLLSVGGTLNDECWPASL (Synthetic SLP) [SEQ ID NO: 87]
CD8 responses, positive mice, Exp#3 [1]: 5/5 | CD4 responses evaluated ex vivo towards the HLA-DRB1*0101 epitope [2]: very low | Fold change = EC50 (M) of MELOE-111-46/EC50 (M) SLP ([3]; SLP MELOE-113-27 xxxx MELOE-136-44, TNF-a response of CD8 T cell clone to SLP-loaded DC, range over independent experiments): 12-56 | cross-presentation compared with full length MELOE-1 / native antigen (in words) ([3]; full length MELOE-1 as reference): the most efficiently processed and cross-presented
